Patent US10544100B2, “Autophagy inhibitors” (priority 2011, dated 2020)

What was measured:
lysosome in U2OS cells = assay: Inhibitory lysosomal mechanism of action (LysoTracker Red and LAMP1 staining); format: cell-based; conditions: for LAMP1 staining / LysoTracker Red staining: at 304 for 3 hours; for LysoTracker Red staining: LysoTracker Red for the final hour; for intensity of LysoTracker Red staining (image analysis, line scan): indicating an increase in pH
Procedure: To determine deacidification of the lysosome, cells were incubated with LysoTracker Red, a dye that localizes to the lysosome based on the low acidity of the compartment. If the lysosome is no longer acidic, there is a loss in the amount of LysoTracker Red staining. Lysosomal inhibition was further determined by immunofluorescence of lysosome-associated membrane protein-1 (LAMP1). If the lysosome is inhibited, lysosomal turnover should decrease and an increase in the amount of LAMP1 staining would be apparent. U2OS cells were treated with Example 7 or Example 26 at […] for 3 hours, supplementing LysoTracker Red for the final hour.
Using image analysis software, the mean intensities of both the LAMP1 and LysoTracker Red staining were measured and represent altered intensity level between treatments on intensity plots. Individual points were measured using a line scan on the image analysis software, which measures the intensity across the path of a line at any given point. Not only does the presence of LAMP1 positive membranes increases, but the intensity in LAMP1 staining also increases with Example 7 and Example 26 treatment. The inverse relationship in intensity holds true for LysoTracker Red staining.

[1] = tested on: PLX-4032 resistant melanoma cell lines UACC1093 and UACC647; assay: Combination interaction tumor cell viability (ATP luminescence), 72 hours; format: cell-based
Procedure: (§1) Tumor cell lines (H292, HCT116, A375, HCC1569, A498, N87, UACC1093, and UACC647) were cultured in RPMI 1640 supplemented with 5% fetal bovine serum and housed in a 5% CO2 Incubator at 37° C.
(§2) For combination interaction experiments, cells were plated on a 96 well microplate and allowed 24 hours to adhere. Drugs were administered to the drug plate by the following: compound stock solutions (20 mM) or combination agent stock solutions (20 mM) were added to a drug plate where a 1:10 dilution was performed. Following the dilutions, 2 μl of each VT-062 and standard agent was transferred to the corresponding wells in the cell-containing 96-well plate with 196 μl of growth media. The compound and combination agent was concurrently tested over a range of 0.1 pM-100 μM for 72 hours. Following 72 hours of continuous exposure cell viability was determined by measuring the ATP activity using a commercially available cell viability assay kit. Luminescence intensity was used to relative drug activity compared to control wells and used to graphically determine the IC50 of combination.

[2] = tested on: A375 Human melanoma tumor cells; assay: Human tumor xenograft study; format: in vivo; conditions: A375 xenograft in female mice, oral, daily for 21 days; after 25 days
Procedure: Female mice were inoculated subcutaneously in the right flank with 0.1 ml of a 50% RPMI/50% Matrigel™ (BD Biosciences, Bedford, Mass.) mixture containing a suspension of A375 Human melanoma tumor cells (approximately 5×10^6 cells/mouse).
When tumor reached approximately 130 mg, mice were randomized into treatment groups. Body weights were recorded when the mice were randomized and were taken twice per week (on Study Days 3 and 7 for each cycle) thereafter in conjunction with tumor measurements. Treatment began on the day of randomization. Example 10 was delivered orally in a vehicle consisting of 5% DMA, 10% propylene glycol, 20% PEG 400, and 65% sterile water. Example 10 was administered daily for 21 days.

[3] = tested on: Tumor cell lines (H292, HCT116, A375, HCC1569, A498, N87, UACC1093, and UACC647); assay: Single agent tumor cell viability (ATP luminescence), 72 hours; format: cell-based; conditions: in the cell lines tested (FIGS. 1A, 1B, and C)
Procedure: as §1
as §2, with “single agent IC50 determination,” for “combination interaction experiments,”, “(10” for “(20 mM) or combination agent stock solutions (20”, “test compound” for “each VT-062 and standard agent”, “198” for “196”, “compounds were” for “compound and combination agent was concurrently”, “IC50.” for “IC50 of combination.”

For `COc1ccc2nc3cc(Cl)ccc3c(NCCCCN3CCN(C)CC3)c2c1` [Example 7, 6-Chloro-2-methoxy-N-(4-(4-methylpiperazin-1-yl)butyl)acridin-9-amine], the “intensity in LAMP1 staining (image analysis, line scan)” value (lysosome in U2OS cells) was “increases”, the LAMP1 staining (lysosome in U2OS cells) was “substantial increases in LAMP1 staining” and the “LysoTracker Red staining” value (lysosome in U2OS cells) was “essentially ablated LysoTracker Red staining”. The “intensity of LysoTracker Red staining (image analysis, line scan)” value (lysosome in U2OS cells) was “less intense LysoTracker Red staining”.
With `COc1ccc2nc3cc(Cl)ccc3c(NCCCCN(C)CC3CC3)c2c1` [Example 10, N^1-(6-Chloro-2-methoxyacridin-9-yl)-N^4-(cyclopropylmethyl)-N^4-methylbutane-1,4-diamine] the “increase in tumor growth inhibition in combination than Example 10 alone” value ([1]; in combination with PLX-4032, UACC1093 and UACC647 (FIGS. 4A and 4C)) was 2.6-3.25%, the “increase in tumor growth inhibition in combination than Example 10 alone” value ([1]; in combination with Temozelomide, UACC1093 and UACC647 (FIGS. 4B and 4D)) was 7-30% and the “tumor growth inhibition (tumor weight)” value [2] was “greater than 50%”. The “tumor cell growth inhibition” value [3] was “more than 75%”.
For `CCN1CCC(Nc2c3c(nc4cc(Cl)ccc24)CCCC3)CC1` [Example 26, 6-Chloro-N-(1-ethylpiperidin-4-yl)-1,2,3,4-tetrahydroacridin-9-amine], the “intensity in LAMP1 staining (image analysis, line scan)” value (lysosome in U2OS cells) was “increases”, the LAMP1 staining (lysosome in U2OS cells) was “substantial increases in LAMP1 staining” and the “LysoTracker Red staining” value (lysosome in U2OS cells) was “essentially ablated LysoTracker Red staining”. The “intensity of LysoTracker Red staining (image analysis, line scan)” value (lysosome in U2OS cells) was “less intense LysoTracker Red staining”.
